This experiment has as its target T1, human natriuretic peptide receptor 2 (hNPR2) (Homo sapiens, UniProt P20594).
T1 construct: expressed in transfected cells; host or cells: HEK293 (ATCC CRL-1573), clone 35, co-transfected with pGloSensor-42F
T1 sequence (P20594 23-1047): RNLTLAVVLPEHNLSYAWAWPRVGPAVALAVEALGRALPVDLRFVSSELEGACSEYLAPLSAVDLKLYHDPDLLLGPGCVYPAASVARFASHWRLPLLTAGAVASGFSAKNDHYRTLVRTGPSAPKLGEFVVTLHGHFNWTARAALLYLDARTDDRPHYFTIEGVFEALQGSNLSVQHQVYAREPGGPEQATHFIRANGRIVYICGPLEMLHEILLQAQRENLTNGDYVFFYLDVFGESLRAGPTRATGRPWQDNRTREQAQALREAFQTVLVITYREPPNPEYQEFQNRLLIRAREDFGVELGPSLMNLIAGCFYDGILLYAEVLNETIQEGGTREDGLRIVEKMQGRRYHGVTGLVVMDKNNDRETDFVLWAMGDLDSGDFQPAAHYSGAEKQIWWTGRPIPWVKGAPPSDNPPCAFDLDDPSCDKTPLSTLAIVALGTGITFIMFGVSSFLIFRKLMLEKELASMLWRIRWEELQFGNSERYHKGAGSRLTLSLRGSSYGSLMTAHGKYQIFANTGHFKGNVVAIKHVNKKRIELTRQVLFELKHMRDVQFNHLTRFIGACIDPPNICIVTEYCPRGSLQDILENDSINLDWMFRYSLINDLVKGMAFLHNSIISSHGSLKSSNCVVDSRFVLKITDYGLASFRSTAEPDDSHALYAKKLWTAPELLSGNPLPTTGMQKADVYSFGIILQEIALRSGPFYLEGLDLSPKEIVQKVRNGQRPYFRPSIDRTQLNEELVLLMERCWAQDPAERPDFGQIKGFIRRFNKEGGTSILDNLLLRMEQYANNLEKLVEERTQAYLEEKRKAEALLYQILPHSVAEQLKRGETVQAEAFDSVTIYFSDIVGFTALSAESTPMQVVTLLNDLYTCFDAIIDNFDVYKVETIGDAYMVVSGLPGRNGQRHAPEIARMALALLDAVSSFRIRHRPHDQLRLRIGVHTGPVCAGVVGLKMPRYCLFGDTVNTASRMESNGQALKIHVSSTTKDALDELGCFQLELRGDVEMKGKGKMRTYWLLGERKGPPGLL
Kind of experiment: In vitro hNPR2 activity assay (cGMP GloSensor reporter, HEK293). The experiment is classed as cell-based. The note with it: for hNPR2 0% HSA. [EC50% rel CNP]: potency relative to CNP22 (0065); for EC50: 0% HSA, HEK293-hNPR2/GloSensor cells. How it is done: To evaluate the in vitro activity of CNP22 (0065; Chem. 1) and CNP compounds of the invention, they were tested for their ability to induce production of cyclic guanosine monophosphate (cGMP) in reporter cells expressing the human natriuretic peptide receptor 2 (hNPR2).
Cell culture: To produce the reporter cell line, HEK293 (ATCC® CRL-1573™) cells were stably transfected with the pGloSensor-42F reporter plasmid (GloSensor cGMP reporter—luciferase, Promega) and an expression plasmid encoding the hNPR2 receptor. A single cell clone was isolated for the reporter cell line. When reporter cells are exposed to an hNPR2 activating compound, hNPR2 cause production of cGMP. […] Active GloSensor luciferase is able to convert luciferin to oxyluciferin, a process that produces bioluminescence. Upon cell lysis and supply of luciferase substrate, luciferase activity can be quantified by detection of luminescence. Therefore, addition of an hNPR2 activating compound and subsequent addition of detection reagent to reporter cells causes generation of luminescence in a dose dependent manner. […] This measure, also referred to as in vitro potency, is reported for all compounds tested. In all the in vitro activity experiments, CNP22 was used as a positive in-plate control for hNPR2 activation. To reduce inter-assay variation, we also report the potency of each compound relative to the potency of the CNP22 control on each plate.
Procedure: HEK293-hNPR2/GloSensor clone 35 cells were continuously cultured in selection medium (DMEM containing 10% FCS, 1% P/S, 200 μg/mL G418 and 100 μg/mL hygromycin). To perform the assay, cells were detached with TrypLE Express (Gibco #12604013), put through a 70 μm cell strainer, counted and seeded in 30 μL/well assay medium (DMEM without phenol red and with 1% P/S) at 10,000 cells/well in white 384-well plates (Perkin Elmer #6007680) overnight. The following day, test compounds were serial diluted in dilution medium (DMEM without phenol red containing 1% OVA (Sigma #A5505 lot 04M7001V), 0.01% Tween20 (Roche #33766700) and 1% P/S) and 10 μL/well of diluted test compounds were subsequently added to the cells. For each compound, ten different concentrations in the range 0.25 μM-10 μM were tested. After 30 min of incubation at 37° C. and 5% CO2, 40 μL/well Bright-Glo detection reagent (Promega #E2650) was added. […] To determine the in vitro potency or EC50 of each test compound, a four parameter logistic regression was done on the raw data for each test compound using the Python package SciPy optimize. The average EC50 values are listed as “hNPR2 0% HSA. [EC50 (nM)]” in Table 2. A relative potency was calculated by the following expression: EC50 (CNP22 in-plate control)/EC50 (test compound)*100, shown as “hNPR2 0% HSA. [EC50% rel CNP]” in Table 2. A minimum of two replicates was measured for each test compound.

The source of these data is patent US20240209028A1, “CNP COMPOUNDS” (priority 2022, published 2024).

Starred links: 1 amine or outer side, 2 acyl side, 3 side chain; linkers in the order of their positions; H or OH if unused. Positions of bridges follow the written chain, without caps; N, C: chain ends. Residues, ends and D or L forms follow the SMILES beside them. *: point of attachment. C18 diacid = O=C(O)CCCCCCCCCCCCCCCCC(=O)*; γGlu = O=C(O)[C@H](CCC(=O)[*:2])N[*:1]; AEEA = NCCOCCOCC(=O)O

In the case of `CC[C@H](C)[C@@H]1NC(=O)[C@H](CCCNC(=N)N)NC(=O)[C@H](CC(=O)O)NC(=O)[C@H](CC(C)C)NC(=O)[C@@H]2CCCN2C(=O)[C@H](CC(C)C)NC(=O)CNC(=O)[C@H](Cc2ccccc2)NC(=O)[C@@H](NC(=O)CNC(=O)[C@H](CCCCN)NC(=O)[C@H](CO)NC(=O)[C@H](CC(C)C)NC(=O)CNC(=O)[C@H](CCCCN)NC(=O)[C@H](CCC(=O)O)NC(=O)[C@H](CCC(N)=O)NC(=O)[C@H](C)NC(=O)CNC(=O)[C@H](CCC(=O)O)NC(=O)[C@H](Cc2ccc(O)cc2)NC(=O)COCCOCCNC(=O)COCCOCCNC(=O)CC[C@H](NC(=O)CCCCCCCCCCCCCCCCC(=O)O)C(=O)O)CSSC[C@@H](C(=O)O)NC(=O)CNC(=O)[C@H](CC(C)C)NC(=O)CNC(=O)[C@H](CO)NC(=O)[C@H](CC(C)C)NC(=O)[C@H](CO)NC(=O)CNC1=O` [compound 1226] ({C18 diacid-γGlu-AEEA-AEEA}-YEGAQEKGLSKGCFGLPLDRIGSLSGLGC-OH; disulfide 13-29), the “hNPR2 0% HSA. [EC50% rel CNP]” value amounted to 7.5%. Same read-out and setting: as for `CC[C@H](C)[C@@H]1NC(=O)[C@H](CCCNC(=N)N)NC(=O)[C@H](CC(=O)O)NC(=O)[C@H](CC(C)C)NC(=O)[C@@H]2CCCN2C(=O)[C@H](CC(C)C)NC(=O)CNC(=O)[C@H](Cc2ccccc2)NC(=O)[C@@H](NC(=O)CNC(=O)[C@H](CO)NC(=O)[C@H](CO)NC(=O)[C@H](CC(C)C)NC(=O)CNC(=O)[C@H](CCCCN)NC(=O)[C@H](CCC(=O)O)NC(=O)[C@H](CCC(N)=O)NC(=O)[C@H](C)NC(=O)CNC(=O)[C@H](CCC(=O)O)NC(=O)[C@H](Cc2ccc(O)cc2)NC(=O)COCCOCCNC(=O)COCCOCCNC(=O)CC[C@H](NC(=O)CCCCCCCCCCCCCCCCC(=O)O)C(=O)O)CSSC[C@@H](C(=O)O)NC(=O)CNC(=O)[C@H](CC(C)C)NC(=O)CNC(=O)[C@H](CO)NC(=O)[C@H](CC(C)C)NC(=O)[C@H](CO)NC(=O)CNC1=O` [compound 1228] ({C18 diacid-γGlu-AEEA-AEEA}-YEGAQEKGLSSGCFGLPLDRIGSLSGLGC-OH; disulfide 13-29), the figure is 12.3%. On to `CC[C@H](C)[C@@H]1NC(=O)[C@H](CCCNC(=N)N)NC(=O)[C@H](CC(=O)O)NC(=O)[C@H](CC(C)C)NC(=O)[C@H](CCCCN)NC(=O)[C@H](CC(C)C)NC(=O)CNC(=O)[C@H](Cc2ccccc2)NC(=O)[C@@H](NC(=O)CNC(=O)[C@H](CCCCN)NC(=O)[C@H](CO)NC(=O)[C@H](CC(C)C)NC(=O)CNC(=O)[C@H](CCCCN)NC(=O)[C@H](CCC(=O)O)NC(=O)[C@H](CCC(N)=O)NC(=O)[C@H](C)NC(=O)CNC(=O)[C@H](CCCCN)NC(=O)[C@H](CCC(=O)O)NC(=O)COCCOCCNC(=O)COCCOCCNC(=O)CC[C@H](NC(=O)CCCCCCCCCCCCCCCCC(=O)O)C(=O)O)CSSC[C@@H](C(=O)O)NC(=O)CNC(=O)[C@H](CC(C)C)NC(=O)CNC(=O)[C@H](CO)NC(=O)[C@H](CC(C)C)NC(=O)[C@H](CO)NC(=O)CNC1=O` [compound 1229] ({C18 diacid-γGlu-AEEA-AEEA}-EKGAQEKGLSKGCFGLKLDRIGSLSGLGC-OH; disulfide 13-29), for which a half-maximal effect (EC50) was put at 4.44 nM and the “hNPR2 0% HSA. [EC50% rel CNP]” value was determined as 5.3%. Regarding `CC[C@H](C)[C@@H]1NC(=O)[C@H](CCCNC(=N)N)NC(=O)[C@H](CC(=O)O)NC(=O)[C@H](CC(C)C)NC(=O)[C@H](CCCCN)NC(=O)[C@H](CC(C)C)NC(=O)CNC(=O)[C@H](Cc2ccccc2)NC(=O)[C@@H](NC(=O)CNC(=O)[C@H](CO)NC(=O)[C@H](CO)NC(=O)[C@H](CC(C)C)NC(=O)CNC(=O)[C@H](CCCCN)NC(=O)[C@H](CCC(=O)O)NC(=O)[C@H](CCC(N)=O)NC(=O)[C@H](C)NC(=O)CNC(=O)[C@H](CCCCN)NC(=O)[C@H](CCC(=O)O)NC(=O)COCCOCCNC(=O)COCCOCCNC(=O)CC[C@H](NC(=O)CCCCCCCCCCCCCCCCC(=O)O)C(=O)O)CSSC[C@@H](C(=O)O)NC(=O)CNC(=O)[C@H](CC(C)C)NC(=O)CNC(=O)[C@H](CO)NC(=O)[C@H](CC(C)C)NC(=O)[C@H](CO)NC(=O)CNC1=O` [compound 1230] ({C18 diacid-γGlu-AEEA-AEEA}-EKGAQEKGLSSGCFGLKLDRIGSLSGLGC-OH; disulfide 13-29), a half-maximal effect (EC50) was put at 6.98 nM and the “hNPR2 0% HSA. [EC50% rel CNP]” value is recorded as 4.2%.

For the compound `CC[C@H](C)[C@@H]1NC(=O)[C@H](CCCNC(=N)N)NC(=O)[C@H](CC(=O)O)NC(=O)[C@H](CC(C)C)NC(=O)[C@H](CCCCN)NC(=O)[C@H](CC(C)C)NC(=O)CNC(=O)[C@H](Cc2ccccc2)NC(=O)[C@@H](NC(=O)CNC(=O)[C@H](CCCCN)NC(=O)[C@H](CO)NC(=O)[C@H](CC(C)C)NC(=O)CNC(=O)[C@H](CCCCN)NC(=O)[C@H](CCC(=O)O)NC(=O)[C@H](CCC(N)=O)NC(=O)[C@H](C)NC(=O)CNC(=O)[C@H](CCC(N)=O)NC(=O)[C@H](CCC(=O)O)NC(=O)COCCOCCNC(=O)COCCOCCNC(=O)CC[C@H](NC(=O)CCCCCCCCCCCCCCCCC(=O)O)C(=O)O)CSSC[C@@H](C(=O)O)NC(=O)CNC(=O)[C@H](CC(C)C)NC(=O)CNC(=O)[C@H](CO)NC(=O)[C@H](CC(C)C)NC(=O)[C@H](CO)NC(=O)CNC1=O` [compound 1231] ({C18 diacid-γGlu-AEEA-AEEA}-EQGAQEKGLSKGCFGLKLDRIGSLSGLGC-OH; disulfide 13-29), the EC50 worked out at 5.62 nM and the “hNPR2 0% HSA. [EC50% rel CNP]” value was 4.1%.

On to `CC[C@H](C)[C@@H]1NC(=O)[C@H](CCCNC(=N)N)NC(=O)[C@H](CC(=O)O)NC(=O)[C@H](CC(C)C)NC(=O)[C@H](CCCCN)NC(=O)[C@H](CC(C)C)NC(=O)CNC(=O)[C@H](Cc2ccccc2)NC(=O)[C@@H](NC(=O)CNC(=O)[C@H](CCCCN)NC(=O)[C@H](CO)NC(=O)[C@H](CC(C)C)NC(=O)CNC(=O)[C@H](CCCCN)NC(=O)[C@H](CCC(=O)O)NC(=O)[C@H](CCC(N)=O)NC(=O)[C@H](C)NC(=O)CNC(=O)[C@H](CCCCN)NC(=O)[C@H](Cc2ccc(O)cc2)NC(=O)COCCOCCNC(=O)COCCOCCNC(=O)CC[C@H](NC(=O)CCCCCCCCCCCCCCCCC(=O)O)C(=O)O)CSSC[C@@H](C(=O)O)NC(=O)CNC(=O)[C@H](CC(C)C)NC(=O)CNC(=O)[C@H](CO)NC(=O)[C@H](CC(C)C)NC(=O)[C@H](CO)NC(=O)CNC1=O` [compound 1232] ({C18 diacid-γGlu-AEEA-AEEA}-YKGAQEKGLSKGCFGLKLDRIGSLSGLGC-OH; disulfide 13-29; C-terminus assumed), for which the EC50 is 1.63 nM and the “hNPR2 0% HSA. [EC50% rel CNP]” value came out at 16.0%.
